What was measured:
[1] = Safety evaluation in vivo (body weight, toxic reactions, H&E staining); details: mice, high-dose group (30 mg/kg)
Protocol: (§1) A total of 25 C57BL/6 mice (6–8 weeks old, weighing approximately 20 g, with equal numbers of males and females) were randomly divided into five groups. Mice in the compound-treated groups were orally administered the compound once daily at doses of 0.3, 3, and 30 mg/kg for 7 consecutive days. […] Mice in the normal group were given an equal volume of normal saline at the same time points. The body weight, death rate, and behavior were observed and recorded daily for one week. After 7 days, bone marrow and blood samples were collected from the mice and lysed using 8% Triton X-100 buffer. The lysates were stored at −20 °C until testing. The activity assays for CTSC and NSPs were performed as described above. The mice were anesthetized and the tissues were taken for H&E staining.

Cat G [2] = assay: Cat G activity in blood and bone marrow of mice; format: in vivo, C57BL/6 mice; details: 30 mg/kg daily gavage, 7 days
Protocol: as §1

Cat G [3] = assay: NSPs activity in U937 cells after 5 days of treatment, Cat G; format: cell-based, human; details: U937, 10 μM
Protocol: U937 cells in the logarithmic growth phase were collected and equally divided into six portions. Four of these portions were treated with DMSO solutions of the test compound at varying concentrations to achieve final concentrations of 1.25, 2.5, 5, and 10 μM, respectively. An equal volume of DMSO was added to one portion as a blank control, while another portion treated with a DMSO solution of AZD7986 served as a positive control. The cells were cultured under standard U937 conditions for 5 consecutive days, with daily medium changes and fresh compound treatments administered using the same protocol. Following 5 days of treatment, cells were harvested, washed twice thoroughly with phosphate-buffered saline, and lysed in phosphate-buffered saline containing 1% Triton X-100. The lysates were centrifuged to collect the supernatant, and protein concentrations were determined as previously described to ensure equal total protein loading across all samples. The prepared samples were stored at −20 °C until further analysis. Different assay buffers were prepared for diluting samples and measuring the activities of specific NSPs: a buffer containing 50 mM Tris and 750 mM NaCl (pH 7.4) was used for NE and PR3; a buffer containing 50 mM Tris, 750 mM NaCl, 5 mM EDTA (pH 7.4) was used for Cat G; and a buffer containing 25 mM MES, 50 mM NaCl, 5 mM DTT (pH 6.0) was used for CTSC. […]

CTSS = biological target: T1, CTSS (Homo sapiens, UniProt P25774); assay: Human recombinant cathepsins isolated enzyme assay, CTSS; format: biochemical; details: read-out: CTSS Enz (IC50: μM)
T1 construct: purchased R&D Systems
T1 sequence (P25774 115-331): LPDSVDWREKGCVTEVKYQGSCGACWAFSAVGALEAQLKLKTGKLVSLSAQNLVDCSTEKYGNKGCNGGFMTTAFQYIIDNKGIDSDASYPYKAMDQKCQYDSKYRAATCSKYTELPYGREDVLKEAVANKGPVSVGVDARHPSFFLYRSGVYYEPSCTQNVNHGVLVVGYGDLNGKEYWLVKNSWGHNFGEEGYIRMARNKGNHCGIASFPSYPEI
From the text: (§2) The protocol for evaluating the inhibitory potency of compounds against other cathepsins referred to the CTSC activity assay. Recombinant human CTSB, CTSL, CTSS and CTSK for testing were also purchased from R&D Systems Biotechnology Company. Recombinant human Cat G, NE, and PR3 For testing were purchased from MedChemExpress. A multi-functional microplate reader was used to measure the absorption of Z-Leu-Arg-AMC at excitation/emission wavelengths of 380/460 nm to assess the activity changes of CTSB and CTSL, while the absorption of MCA-Arg-Pro-Lys-Pro-Val-Glu-NVAL-Trp-Arg-Lys(DNP)-NH2 at 320/405 nm was measured to evaluate the activity changes of CTSS and CTSK. Different assay buffers were prepared for diluting samples and measuring the activities of specific NSPs: a buffer containing 50 mM Tris and 750 mM NaCl (pH 7.4) was used for NE and PR3; a buffer containing 50 mM Tris, 750 mM NaCl, 5 mM EDTA (pH 7.4) was used for Cat G; and a buffer containing 25 mM MES, 50 mM NaCl, 5 mM DTT (pH 6.0) was used for CTSC. Synthetic substrates were employed to assess the activities of NSPs and CTSC: H-Gly-Arg-AMC for CTSC, N-MeSuc-Ala-Ala-Pro-Val-pNA for NE, aminobenzoyl-Val-Ala-Asp-Cys-Ala-Asp-Gln-ethylenediamine 2,4-dinitrophenyl for PR3, and N-Suc-Ala-Ala-Pro-Phe-pNA for Cat G. Each group of tests was independently repeated at least 3 times, and IC50 values were calculated using SPSS 10.0.

CTSC and NSPs = assay: AIA model, serum CTSC and NSPs activities, stated together; format: in vivo, Sprague-Dawley rats; details: rat AIA, low-dose (15 mg/kg) and medium-dose (30 mg/kg) groups
Protocol: Thirty 4-week-old male Sprague-Dawley rats (weighing 120–130 g) were randomly divided into 6 groups (5 rats per group) after 1 week of adaptive feeding, namely the normal group, model group, low-dose experimental group (15 mg/kg), medium-dose experimental group (30 mg/kg), high-dose experimental group (60 mg/kg), and positive control group (30 mg/kg). Starting from Day 0 of the experiment, rats in the administration groups and model group were injected intradermally with 0.1 mL of CFA into the left hind paw to induce AIA, while rats in the normal group were injected intradermally with an equal volume (0.1 mL) of normal saline as a control. After 13 consecutive days of feeding, rats treated with CFA successfully developed typical AIA symptoms. […] During the experiment, the body weight, mental state, activity ability, hair color changes, and paw appearance changes of the rats were observed and recorded daily. In addition, on Day 0 of the experiment (baseline period), the basic paw volume of all rats was accurately measured using a plethysmometer, which served as a reference standard for subsequent evaluation of inflammation severity. From Day 13 to Day 28 of the experiment, the paw volume of the rats was measured repeatedly every 3 days. The degree of paw swelling was quantified by calculating the change in paw volume relative to the baseline. […] The cytokine levels in serum were measured. […]

PR3 = biological target: T2, PR3 (Homo sapiens, UniProt P24158); assay: Recombinant NSPs isolated enzyme assay, PR3; format: biochemical; details: read-out: PR3 Enz (IC50: μM)
T2 construct: purchased MedChemExpress
T2 sequence (P24158 28-256): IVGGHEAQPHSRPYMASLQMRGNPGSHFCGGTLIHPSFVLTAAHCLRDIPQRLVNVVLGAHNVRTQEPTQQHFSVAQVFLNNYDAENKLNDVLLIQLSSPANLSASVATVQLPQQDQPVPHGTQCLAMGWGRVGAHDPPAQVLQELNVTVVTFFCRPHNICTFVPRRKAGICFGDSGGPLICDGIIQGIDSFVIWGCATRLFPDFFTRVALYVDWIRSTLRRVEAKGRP
From the text: as §2

CTSL = biological target: T3, CTSL (Homo sapiens, UniProt P07711); assay: Human recombinant cathepsins isolated enzyme assay, CTSL; format: biochemical; details: read-out: CTSL Enz (IC50: μM)
T3 construct: purchased R&D Systems
T3 sequence (P07711 114-333): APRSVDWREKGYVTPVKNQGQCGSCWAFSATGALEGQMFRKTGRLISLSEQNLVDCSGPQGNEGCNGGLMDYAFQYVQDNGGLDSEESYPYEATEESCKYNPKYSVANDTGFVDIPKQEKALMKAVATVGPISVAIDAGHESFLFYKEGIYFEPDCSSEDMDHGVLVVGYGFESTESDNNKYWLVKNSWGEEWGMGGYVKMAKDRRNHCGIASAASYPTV
From the text: as §2

With `C[C@@H]1C[C@H]2OC(=O)[C@@]3(C)CCC[C@@](C)([C@@H]23)[C@@]1(O)CCc1ccoc1` [Marrubiin, marrubiin] the “toxic reactions and body weight” value ([1]; 7-day continuous administration) was “no toxic reactions or significant weight loss were observed”, the “H&E staining of tissues and organs (heart, liver, spleen, lung, kidney)” value ([1]; 7 days) was “No pathological changes” and the “remaining activity rate of Cat G” value (Cat G [2]; blood) was about 35.5%. For the same compound, the “remaining activity rate of Cat G” value (Cat G [2]; bone marrow) was about 40.2%, the “Cat G activity, % of DMSO group” value (Cat G [3]) was 16.9% and the IC50 (CTSS) was over 5 µM. For the same compound, the “serum activities of CTSC and NSPs” value (CTSC and NSPs) was “no significant reduction effect”, the IC50 (PR3) was over 10 µM and the IC50 (CTSL) was 4.4 ± 0.5 µM.

Source: paper PMC12610274, “Identification of Marrubiin as a Cathepsin C Inhibitor for Treating Rheumatoid Arthritis” (Molecules, 2025)
